Measurements published in patent publication US20240368122A1, “JAK2 INHIBITORS AND METHODS OF USE THEREOF” (RELAY THERAPEUTICS, INC., priority 2021, published 2024).
Where two headings read alike, the source gives them in different places.

Key:
[1] = molecular target: T1, JAK2 JH2 WT (V536-D812) [W659A, W777A, F794H solubilizing mutations] (Homo sapiens, UniProt O60674, F794H/W659A/W777A); experiment: Surface Plasmon Resonance (SPR) binding assay, JAK2 JH2 domain
T1 construct: **JAK2 JH2 WT (V536-D812) [W659A, W777A, F794H solubilizing mutations]; C-thrombin-avi-His6; thrombin cleavage site (C); His6 (C); purchased Biortus
T1 sequence (O60674 536-812 W659A/W777A/F794H): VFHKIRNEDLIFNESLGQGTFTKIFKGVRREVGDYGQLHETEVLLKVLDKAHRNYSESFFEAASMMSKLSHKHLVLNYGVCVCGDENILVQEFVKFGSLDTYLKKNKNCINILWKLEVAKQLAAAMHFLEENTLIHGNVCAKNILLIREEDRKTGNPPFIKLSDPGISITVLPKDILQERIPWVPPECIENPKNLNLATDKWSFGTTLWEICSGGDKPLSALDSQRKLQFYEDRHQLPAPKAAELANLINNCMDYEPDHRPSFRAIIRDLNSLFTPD
Description: Selected compounds of the present disclosure were tested in a Surface Plasmon Resonance (SPR) Assay to measure their binding kinetics and affinity for proteins of interest.
Prepare buffer: 50 mM HEPES pH 7.5, 150 mM NaCl, 0.05% (v/v) Tween, and 10% (v/v) glycerol were combined and pH was adjusted to 7.5, then filtered. 5 mM DTT, was added, and buffer without DMSO was reserved for compound resuspension. 2% (v/v) DMSO was added for assay buffer, and separately 1% DMSO was used to make buffer for resuspending compounds.
Prepare compounds: Using a Bravo liquid handler, 99 μL of 1% (v/v) DMSO assay buffer was added to 1 μL compounds in DMSO.
Run 8K Method: Biotin CAPture (CAP) chip surface was regenerated prior to run by: Inserting CAP chip into Biacore 8K, prime machine with assay buffer with 2% (v/v) DMSO; Setting instrument temperature to 20° C.; Conditioning surface with NaOH/GdnHCl reagents from CAP chip kit (60 seconds, 10 μL/min); and Capturing oligo-Streptavidin (SA) reagent from CAP kit (600 seconds, 1 μL/min), expected capture ˜2500 RU. JAK2 JH1 or JH2 protein was immobilized by preparing a sample of 0.5 uM JH1 or 0.4 uM JH2 protein diluted in assay buffer without DMSO and supplemented with 10 uM of a selected compound of the invention as a stabilizer (370 seconds, 5 uL/min), expected capture ˜1000 RU. Remaining biotin sites on SA were blocked with 1 uM biotin (30 seconds, 20 uL/min), then equilibrated for 1800 seconds at 100 uL/min. Compounds being assayed were run in single cycle kinetics: 4 doses with a top concentration of 5 uM (JH1) or 500 nM (JH2), dilution factor of 3, at 20° C., for a contact time of 60 seconds, and a dissociation time of 300 seconds (JH1) or 1200 seconds (JH2), at a flow rate of 30 uL/min. The surface was completely regenerated after each compound is run, and JH1 or JH2 protein was immobilized fresh prior to each new compound. Data were fitted kinetically with 1:1 binding model using Biacore Insight Evaluation Software.

[2] = system: TF1 JAK2 V617F STAT5 reporter; experiment: Cellular TF1 STAT5 assay (luciferase reporter), JAK2 V617F; format: cell-based; settings: read-out: Cell PD TF1 V617F STAT5 (IC50)
Description: (§1) Selected compounds of the present disclosure were tested in a Cellular TF1 STAT3 or STAT5 assay, to measure the degree of JAK2-mediated STAT3 or STAT5 phosphorylation, respectively. TF1 cells (immortalized erythroleukemia line) expressing either wildtype or V617F mutant JAK2 with a luciferase reporter were used.
(§2) Cell culture: Cells were put into antibiotic selection (1 ug/ml puro+500 ug/ml Geneticin) when first thawed then maintained in growth media without antibiotics. Cells were maintained in exponential growth phase, between 0.02-1 E6 cells/ml.
(§3) Compound preparation: Compounds were screened as 10-point dose response curves 1:3 dilutions. DMSO is used as the vehicle control. All wells were normalized to the same final DMSO concentration. Compounds were pre-spotted onto 384 well plates using an Echo acoustic dispenser, 50 nL of 1000× (10 mM top concentration) DMSO stock/well. Each compound is run in triplicate plates.
(§4) Cell plating: Cells were counted using Vi-Cell XR, then cells were spun down and resuspended in growth media to 200,000 cells/ml. Cells were added to plates containing compound. 10,000 cells/well in 50 ul volume using a Biomek liquid handler. Plates were briefly mixed on a shaker for 1 minute at 2500 rpm then placed in a 37° C., 5% CO2 incubator overnight for 18-20 hrs.
(§5) Measuring luciferase activity: ONE-glo reagent was brought to room temperature, and 25 μL of ONE-glo assay reagent was added to each well using Biomek liquid handler. The plates were incubated for 10 minutes at room temperature, then luminescence was measured on an Envision plate reader.

[3] = system: TF1 JAK2 V617F STAT3 reporter; experiment: Cellular TF1 STAT3 assay (luciferase reporter), JAK2 V617F; format: cell-based; settings: read-out: Cell PD-TF1 JAK2 V617F STAT3 (IC50)
Description: as §1, §2, §3, §4, §5

[4] = Homo sapiens, TF-1, TF1 cells, JAK2 V617F

| SMILES | Kd ([1]; SPR, JAK2 JH2 domain) [nM] | IC50 ([2]; TF1 JAK2 V617F) [µM] | IC50 ([3]; TF1 JAK2 V617F) [µM] | Kd [1] [nM] | IC50 [2, 4] [µM] | IC50 [3, 4] [µM] |
| --- | --- | --- | --- | --- | --- | --- |
| CNC(=O)c1nnc(NC(=O)C2CC2)cc1Nc1cccc(-c2ccc(C(=O)N(C)[C@@H](C)c3ccn(C)n3)nc2)c1OC (single isomer, unassigned) [Compound 160] | 0.01 to 10 | 0.5 to 5 | 0.5 to 5 | – | – | – |
| CNC(=O)c1nnc(NC(=O)C2CC2)cc1Nc1cccc(-c2ccc(C(=O)N(C)[C@H](C)c3ccn(C)n3)nc2)c1OC (single isomer, unassigned) [Compound 161] | 0.01 to 10 | 0.5 to 5 | 0.5 to 5 | – | – | – |
| CNC(=O)c1nnc(NC(=O)C2CC2)cc1Nc1cccc(-c2cnn(C3CN([C@@H](C)c4ccccn4)C3)c2)c1OC (single isomer, unassigned) [Compound 162] | 0.01 to 10 | 0.5 to 5 | 0.05 to 0.5 | – | – | – |
| CNC(=O)c1nnc(NC(=O)C2CC2)cc1Nc1cccc(-c2cnn(C3CN([C@H](C)c4ccccn4)C3)c2)c1OC (single isomer, unassigned) [Compound 163] | 0.01 to 10 | 5 to 100 | 0.5 to 5 | – | – | – |
| CNC(=O)c1nnc(NC(=O)C2CC2)cc1Nc1cccc(-c2ccc(C(=O)N(C)[C@H](C)c3cc(C#N)ccn3)nc2)c1OC (single isomer, unassigned) [Compound 181] | 0.01 to 10 | 0.5 to 5 | 0.5 to 5 | – | – | – |
| CNC(=O)c1nnc(NC(=O)C2CC2)cc1Nc1cccc(-c2ccc(C(=O)N(C)CC3=NO[C@@H]4CCCC[C@H]34)nc2)c1OC (single isomer, unassigned) [Compound 193] | 0.01 to 10 | 0.05 to 0.5 | 0.05 to 0.5 | – | – | – |
| CNC(=O)c1nnc(NC(=O)C2CC2)cc1Nc1cccc(-c2ccc(C(=O)N(C)CC3=NO[C@H]4CCCC[C@@H]34)nc2)c1OC (single isomer, unassigned) [Compound 194] | 0.01 to 10 | 0.5 to 5 | 0.5 to 5 | – | – | – |
| CNC(=O)c1nnc(NC(=O)C2CC2)cc1Nc1cccc(-c2ccc(C(=O)N(C)C[C@H]3CCCC3(F)F)cc2)c1OC (single isomer, unassigned) [Compound 206] | – | – | – | 10 to 50 | 5 to 100 | 5 to 100 |
| CNC(=O)c1nnc(NC(=O)C2CC2)cc1Nc1cccc(-c2ccc(C(=O)N(C)C[C@H]3CCS(=O)(=O)C3)nc2)c1OC (single isomer, unassigned) [Compound 207] | – | – | – | 0.01 to 10 | 5 to 100 | 5 to 100 |
| CNC(=O)c1nnc(NC(=O)C2CC2)cc1Nc1cccc(-c2ccc(C(=O)N(C)C[C@@H]3CCCC3(F)F)cc2)c1OC (single isomer, unassigned) [Compound 208] | – | – | – | 0.01 to 10 | 5 to 100 | 5 to 100 |
| CNC(=O)c1nnc(NC(=O)C2CC2)cc1Nc1cccc(-c2ccc(C(=O)N(C)C[C@@H]3CCS(=O)(=O)C3)nc2)c1OC (single isomer, unassigned) [Compound 209] | – | – | – | 10 to 50 | 5 to 100 | 5 to 100 |
| CNC(=O)c1nnc(NC(=O)C2CC2)cc1Nc1cccc(-c2ccc(C(=O)N(C)C[C@@H]3CCCC3(F)F)nc2)c1OC (single isomer, unassigned) [Compound 225] | – | – | – | 10 to 50 | 5 to 100 | 5 to 100 |
| CNC(=O)c1nnc(NC(=O)C2CC2)cc1Nc1cccc(-c2ccc(C(=O)N(C)C[C@H]3CCCC3(F)F)nc2)c1OC (single isomer, unassigned) [Compound 226] | – | – | – | 10 to 50 | 5 to 100 | 5 to 100 |
| CNC(=O)c1nnc(NC(=O)C2CC2)cc1Nc1cccc(C(=O)N[C@@H](C)C2CN(Cc3ccccn3)C2)c1OC (single isomer, unassigned) [Compound 245] | – | – | – | 50 to 500 | 5 to 100 | 5 to 100 |
| CNC(=O)c1nnc(NC(=O)C2CC2)cc1Nc1cccc(C(=O)N[C@H](C)C2CN(Cc3ccccn3)C2)c1OC (single isomer, unassigned) [Compound 246] | – | – | – | 50 to 500 | 5 to 100 | 5 to 100 |
| CNC(=O)c1nnc(NC(=O)C2CC2)cc1Nc1cccc(-c2cnn(C3CN([C@H](C)c4cccc(C#N)n4)C3)c2)c1OC (single isomer, unassigned) [Compound 283] | – | – | – | 0.01 to 10 | 0.5 to 5 | 0.5 to 5 |
| CNC(=O)c1nnc(NC(=O)C2CC2)cc1Nc1cccc(-c2cnn(C3CN([C@@H](C)c4cccc(C#N)n4)C3)c2)c1OC (single isomer, unassigned) [Compound 286] | – | – | – | 0.01 to 10 | 0.05 to 0.5 | 0.05 to 0.5 |
| CNC(=O)c1nnc(NC(=O)C2CC2)cc1Nc1cccc(-c2cnn([C@@H]3CCN(Cc4cccc(C#N)n4)C3)c2)c1OC (single isomer, unassigned) [Compound 318] | – | – | – | 0.01 to 10 | 0.5 to 5 | 0.5 to 5 |
| CNC(=O)c1nnc(NC(=O)C2CC2)cc1Nc1cccc(-c2cnn([C@H]3CCN(Cc4ccccn4)C3)c2)c1OC (single isomer, unassigned) [Compound 333] | – | – | – | 0.01 to 10 | 0.5 to 5 | 0.5 to 5 |
| CNC(=O)c1nnc(NC(=O)C2CC2)cc1Nc1cccc(-c2cnn([C@@H]3CCN(Cc4ccccn4)C3)c2)c1OC (single isomer, unassigned) [Compound 334] | – | – | – | 0.01 to 10 | 0.5 to 5 | 0.5 to 5 |
| CNC(=O)c1nnc(NC(=O)C2CC2)cc1Nc1cccc(-c2cnn([C@H]3C[C@H]([C@@H](OC)c4ccccn4)C3)c2)c1OC (single isomer, unassigned) [Compound 346] | – | – | – | 0.01 to 10 | 0.5 to 5 | 0.5 to 5 |
| CNC(=O)c1nnc(NC(=O)C2CC2)cc1Nc1cccc(-c2cnn([C@H]3C[C@@H]([C@H](OC)c4ccccn4)C3)c2)c1OC (single isomer, unassigned) [Compound 350] | – | – | – | 10 to 50 | 0.5 to 5 | 0.5 to 5 |
| CNC(=O)c1nnc(NC(=O)C2CC2)cc1Nc1cccc(-c2cnn([C@H]3C[C@H]([C@@H](O)c4ccccn4)C3)c2)c1OC (single isomer, unassigned) [Compound 396] | 0.01 to 10 | – | – | – | 0.5 to 5 | 0.5 to 5 |
| CNC(=O)c1nnc(NC(=O)C2CC2)cc1Nc1cccc(-c2cnn([C@H]3C[C@H]([C@H](O)c4ccccn4)C3)c2)c1OC (single isomer, unassigned) [Compound 397] | 0.01 to 10 | – | – | – | 5 to 100 | 0.5 to 5 |
| CNC(=O)c1nnc(NC(=O)C2CC2)cc1Nc1cccc(-c2cnn([C@H]3C[C@@H]([C@@H](O)c4ccccn4)C3)c2)c1OC (single isomer, unassigned) [Compound 398] | 0.01 to 10 | – | – | – | 0.5 to 5 | 0.5 to 5 |
| CNC(=O)c1nnc(NC(=O)C2CC2)cc1Nc1cccc(-c2cnn([C@H]3C[C@@H]([C@H](O)c4ccccn4)C3)c2)c1OC (single isomer, unassigned) [Compound 399] | 0.01 to 10 | – | – | – | 0.05 to 0.5 | 0.5 to 5 |
| CNC(=O)c1nnc(NC(=O)C2CC2)cc1Nc1cccc(-c2cn([C@H]3CN(Cc4cccc(C#N)n4)[C@@H]3C)nn2)c1OC (stereo in doubt) [Compound 234] | – | – | – | 0.01 to 10 | 0.05 to 0.5 | 0.05 to 0.5 |
